Test: xn = mol fraction of the nth substance listed

CCCCCCCCCCCC + CCCCCC
Conditions | viscosity [mPa·s]
293.15 K, 100 kPa, x2 = 0.0986 | 1.294
293.15 K, 100 kPa, x2 = 0.2 | 1.18
293.15 K, 100 kPa, x2 = 0.2024 | 1.137
293.15 K, 100 kPa, x2 = 0.2991 | 1.003
293.15 K, 100 kPa, x2 = 0.4 | 0.89
293.15 K, 100 kPa, x2 = 0.4003 | 0.864
293.15 K, 100 kPa, x2 = 0.5036 | 0.746
293.15 K, 100 kPa, x2 = 0.6 | 0.67
293.15 K, 100 kPa, x2 = 0.6025 | 0.635
293.15 K, 100 kPa, x2 = 0.7016 | 0.538
293.15 K, 100 kPa, x2 = 0.8 | 0.47
293.15 K, 100 kPa, x2 = 0.8003 | 0.453
293.15 K, 100 kPa, x2 = 0.899 | 0.382
298.1 K, 100 kPa, x2 = 0.5 | 0.719
298.15 K, 100 kPa, x2 = 0.0986 | 1.188
298.15 K, 100 kPa, x2 = 0.2024 | 1.049
298.15 K, 100 kPa, x2 = 0.2991 | 0.929
298.15 K, 100 kPa, x2 = 0.4003 | 0.803
298.15 K, 100 kPa, x2 = 0.5036 | 0.697
298.15 K, 100 kPa, x2 = 0.6025 | 0.596
298.15 K, 100 kPa, x2 = 0.7016 | 0.508
298.15 K, 100 kPa, x2 = 0.8003 | 0.429
298.15 K, 100 kPa, x2 = 0.899 | 0.363
298.15 K, 101 kPa, x1 = 0.1924 | 0.4343
298.15 K, 101 kPa, x1 = 0.4248 | 0.6351
298.15 K, 101 kPa, x1 = 0.605 | 0.8243
298.15 K, 101 kPa, x1 = 0.8064 | 1.067
298.15 K, 101.33 kPa, x1 = 0.0232 | 0.3154
298.15 K, 101.33 kPa, x1 = 0.0783 | 0.3506
298.15 K, 101.33 kPa, x1 = 0.1615 | 0.4067
298.15 K, 101.33 kPa, x1 = 0.1736 | 0.4183
298.15 K, 101.33 kPa, x1 = 0.3209 | 0.5387
298.15 K, 101.33 kPa, x1 = 0.411 | 0.6213
298.15 K, 101.33 kPa, x1 = 0.6005 | 0.8244
298.15 K, 101.33 kPa, x1 = 0.6932 | 0.9294
298.15 K, 101.33 kPa, x1 = 0.8557 | 1.137
298.15 K, 101.33 kPa, x1 = 0.9271 | 1.241
298.15 K, 101.33 kPa, x2 = 0.1128 | 1.196
298.15 K, 101.33 kPa, x2 = 0.2137 | 1.047
298.15 K, 101.33 kPa, x2 = 0.3024 | 0.9328
298.15 K, 101.33 kPa, x2 = 0.4043 | 0.8164
298.15 K, 101.33 kPa, x2 = 0.5067 | 0.7076
298.15 K, 101.33 kPa, x2 = 0.6062 | 0.6105
298.15 K, 101.33 kPa, x2 = 0.7222 | 0.5009
298.15 K, 101.33 kPa, x2 = 0.8039 | 0.4331
298.15 K, 101.33 kPa, x2 = 0.9037 | 0.3631
298.27 K, 101.3 kPa, x1 = 0.4998 | 0.7168
298.47 K, 101.3 kPa, x1 = 0.2499 | 0.4774
298.47 K, 101.3 kPa, x1 = 0.7481 | 1.002
303.15 K, 100 kPa, x2 = 0.0986 | 1.095
303.15 K, 100 kPa, x2 = 0.2024 | 0.971
303.15 K, 100 kPa, x2 = 0.2991 | 0.864
303.15 K, 100 kPa, x2 = 0.4003 | 0.75
303.15 K, 100 kPa, x2 = 0.5036 | 0.653
303.15 K, 100 kPa, x2 = 0.6025 | 0.561
303.15 K, 100 kPa, x2 = 0.7016 | 0.479
303.15 K, 100 kPa, x2 = 0.8003 | 0.407
303.15 K, 100 kPa, x2 = 0.899 | 0.352
303.57 K, 101.3 kPa, x1 = 0.7481 | 0.9319
303.58 K, 101.3 kPa, x1 = 0.2499 | 0.4512
308.12 K, 101.3 kPa, x1 = 0.7481 | 0.8716
308.15 K, 100 kPa, x2 = 0.0986 | 1.013
308.15 K, 100 kPa, x2 = 0.2024 | 0.902
308.15 K, 100 kPa, x2 = 0.2991 | 0.805
308.15 K, 100 kPa, x2 = 0.4003 | 0.702
308.15 K, 100 kPa, x2 = 0.5036 | 0.613
308.15 K, 100 kPa, x2 = 0.6025 | 0.529
308.15 K, 100 kPa, x2 = 0.7016 | 0.453
308.15 K, 100 kPa, x2 = 0.8003 | 0.388
308.15 K, 100 kPa, x2 = 0.899 | 0.334
308.15 K, 101.33 kPa, x1 = 0.0232 | 0.2875
308.15 K, 101.33 kPa, x1 = 0.0783 | 0.3133
308.15 K, 101.33 kPa, x1 = 0.1615 | 0.3656
308.15 K, 101.33 kPa, x1 = 0.1736 | 0.3742
308.15 K, 101.33 kPa, x1 = 0.3209 | 0.4799
308.15 K, 101.33 kPa, x1 = 0.411 | 0.5504
308.15 K, 101.33 kPa, x1 = 0.6005 | 0.7191
308.15 K, 101.33 kPa, x1 = 0.8557 | 0.9709
308.15 K, 101.33 kPa, x1 = 0.9271 | 1.054
308.18 K, 101.3 kPa, x1 = 0.4998 | 0.6313
308.23 K, 101.3 kPa, x1 = 0.2499 | 0.4292
311.42 K, 101.3 kPa, x1 = 0.2499 | 0.4144
313.15 K, 100 kPa, x2 = 0.0986 | 0.941
313.15 K, 100 kPa, x2 = 0.2 | 0.87
313.15 K, 100 kPa, x2 = 0.2024 | 0.841
313.15 K, 100 kPa, x2 = 0.2991 | 0.753
313.15 K, 100 kPa, x2 = 0.4 | 0.69
313.15 K, 100 kPa, x2 = 0.4003 | 0.658
313.15 K, 100 kPa, x2 = 0.5036 | 0.578
313.15 K, 100 kPa, x2 = 0.6 | 0.53
313.15 K, 100 kPa, x2 = 0.6025 | 0.5
313.15 K, 100 kPa, x2 = 0.7016 | 0.43
313.15 K, 100 kPa, x2 = 0.8 | 0.38
313.15 K, 100 kPa, x2 = 0.8003 | 0.37
313.15 K, 100 kPa, x2 = 0.899 | 0.317
318.15 K, 100 kPa, x2 = 0.0986 | 0.876
318.15 K, 100 kPa, x2 = 0.2024 | 0.786
318.15 K, 100 kPa, x2 = 0.2991 | 0.706
318.15 K, 100 kPa, x2 = 0.4003 | 0.619
318.15 K, 100 kPa, x2 = 0.5036 | 0.545
318.15 K, 100 kPa, x2 = 0.6025 | 0.474
318.15 K, 100 kPa, x2 = 0.7016 | 0.409
318.15 K, 100 kPa, x2 = 0.8003 | 0.359
318.15 K, 100 kPa, x2 = 0.899 | 0.302
322.68 K, 101.3 kPa, x1 = 0.4998 | 0.5301
323.08 K, 101.3 kPa, x1 = 0.2499 | 0.3672
323.15 K, 100 kPa, x2 = 0.0986 | 0.819
323.15 K, 100 kPa, x2 = 0.2024 | 0.736
323.15 K, 100 kPa, x2 = 0.2991 | 0.663
323.15 K, 100 kPa, x2 = 0.4003 | 0.584
323.15 K, 100 kPa, x2 = 0.5036 | 0.515
323.15 K, 100 kPa, x2 = 0.6025 | 0.45
323.15 K, 100 kPa, x2 = 0.7016 | 0.389
323.15 K, 100 kPa, x2 = 0.8003 | 0.342
323.15 K, 100 kPa, x2 = 0.899 | 0.287

OCCOCCOCCO + CN(C)C=O
viscosity [mPa·s], 101 kPa
Conditions | 293.15 K | 298.15 K | 303.15 K | 308.15 K | 313.15 K | 318.15 K
x1 = 0.025 | 1 | 0.933 | 0.868 | 0.847 | 0.768 | 0.727
x1 = 0.0513 | 1.15 | 1.07 | 0.987 | 0.952 | 0.876 | 0.815
x1 = 0.0791 | 1.33 | 1.24 | 1.13 | 1.08 | 0.997 | 0.921
x1 = 0.1085 | 1.54 | 1.42 | 1.31 | 1.22 | 1.15 | 1.05
x1 = 0.1396 | 1.81 | 1.68 | 1.51 | 1.39 | 1.32 | 1.21
x1 = 0.1726 | 2.12 | 1.95 | 1.76 | 1.6 | 1.52 | –
x1 = 0.2077 | 2.53 | 2.3 | 2.07 | 1.85 | 1.76 | –
x1 = 0.245 | 3.02 | 2.74 | 2.44 | 2.16 | 2.06 | –
x1 = 0.2848 | 3.64 | 3.27 | 2.88 | 2.53 | 2.41 | –
x1 = 0.3274 | 4.45 | 3.93 | 3.45 | 3 | 2.85 | –
x1 = 0.373 | 5.37 | 4.74 | 4.12 | 3.55 | 3.33 | –
x1 = 0.422 | 6.64 | 5.77 | 4.96 | 4.25 | 3.96 | –
x1 = 0.4748 | 8.33 | 7.17 | 6.09 | 5.12 | 4.79 | –
x1 = 0.5318 | 10.3 | 8.94 | 7.5 | 6.17 | 5.77 | –
x1 = 0.5935 | 12.9 | 10.9 | 9.08 | 7.6 | 6.92 | –
x1 = 0.6607 | 16.5 | 13.7 | 11.3 | 9.37 | 8.38 | –
x1 = 0.7339 | 21.2 | 17.4 | 14.2 | 11.6 | 10.3 | –
x1 = 0.8141 | 27.4 | 22.2 | 17.9 | 14.4 | 12.8 | –
x1 = 0.9024 | 35.5 | 28.6 | 22.7 | 17.6 | 15.8 | –
